Like-named read-outs stand apart in the source and are kept apart here.
What was measured:
[1] = target: T1, JAK1 (Homo sapiens, UniProt P23458); experiment: Biochemical JAK1 kinase assay (LanthaScreen); conditions: for Ki: read-out: JAK 1 (pKi) (converted)
T1 construct: GST; purchased Life Technologies
Method in brief: (§1)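 Compounds were preincubated with the GST-tagged kinase and GFP-labelled STAT1 peptide for one hour before ATP initiated a one-hour reaction at ambient temperature. Phosphorylation was quantified by TR-FRET with a Tb-labelled pTyr701 antibody. Ki values were derived from IC50 using Cheng-Prusoff.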

[2] = target: T2, JAK2 (Homo sapiens, UniProt O60674); experiment: Biochemical JAK2 kinase assay (LanthaScreen); conditions: for Ki: read-out: JAK 2 (pKi) (converted)
T2 construct: GST; purchased Life Technologies
T2 sequence (O60674 whole entry): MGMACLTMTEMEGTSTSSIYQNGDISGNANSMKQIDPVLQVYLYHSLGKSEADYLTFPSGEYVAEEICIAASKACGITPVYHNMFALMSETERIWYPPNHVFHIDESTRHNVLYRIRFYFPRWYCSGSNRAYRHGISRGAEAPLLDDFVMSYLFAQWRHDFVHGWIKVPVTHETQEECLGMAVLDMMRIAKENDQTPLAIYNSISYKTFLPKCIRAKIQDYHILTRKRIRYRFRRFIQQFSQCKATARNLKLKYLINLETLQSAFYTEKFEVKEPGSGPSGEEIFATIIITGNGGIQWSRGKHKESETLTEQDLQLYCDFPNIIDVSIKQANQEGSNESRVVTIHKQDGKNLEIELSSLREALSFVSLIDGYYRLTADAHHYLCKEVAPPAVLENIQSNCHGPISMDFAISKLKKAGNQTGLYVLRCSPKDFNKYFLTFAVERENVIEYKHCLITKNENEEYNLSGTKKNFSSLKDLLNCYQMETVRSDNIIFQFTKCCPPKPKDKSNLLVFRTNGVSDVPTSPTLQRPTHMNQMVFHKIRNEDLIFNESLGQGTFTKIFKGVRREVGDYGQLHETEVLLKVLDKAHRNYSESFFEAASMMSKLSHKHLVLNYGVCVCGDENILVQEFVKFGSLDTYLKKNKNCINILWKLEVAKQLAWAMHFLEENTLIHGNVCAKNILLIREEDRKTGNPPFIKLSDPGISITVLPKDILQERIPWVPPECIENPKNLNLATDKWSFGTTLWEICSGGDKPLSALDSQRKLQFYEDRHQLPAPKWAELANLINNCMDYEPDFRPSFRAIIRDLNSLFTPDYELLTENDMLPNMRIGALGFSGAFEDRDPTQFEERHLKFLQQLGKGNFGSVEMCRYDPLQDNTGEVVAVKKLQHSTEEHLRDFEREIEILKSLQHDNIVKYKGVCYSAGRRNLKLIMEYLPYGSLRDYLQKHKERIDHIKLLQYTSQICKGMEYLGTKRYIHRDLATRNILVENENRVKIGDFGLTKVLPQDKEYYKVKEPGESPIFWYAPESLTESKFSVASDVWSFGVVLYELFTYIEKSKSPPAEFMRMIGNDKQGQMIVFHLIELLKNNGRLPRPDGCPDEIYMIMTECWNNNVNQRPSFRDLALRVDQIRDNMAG
Method in brief: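 GST-tagged recombinant JAK2 pre-incubated 1 h at ambient temperature with compound and GFP-STAT1 peptide in HEPES pH 7.5/MgCl2 buffer, then ATP added for a 1 h reaction with 1% DMSO. TR-FRET read after EDTA and Tb-anti-pSTAT1 (pTyr701) addition; IC50 from 4-parameter fit, converted to pKi by Cheng-Prusoff.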

[3] = target: T3, Tyk2 (Homo sapiens, UniProt P29597); experiment: Biochemical Tyk2 kinase assay (LanthaScreen); conditions: for Ki: read-out: Tyk 2 (pKi) (converted)
T3 construct: GST; purchased Life Technologies
T3 sequence (P29597 whole entry): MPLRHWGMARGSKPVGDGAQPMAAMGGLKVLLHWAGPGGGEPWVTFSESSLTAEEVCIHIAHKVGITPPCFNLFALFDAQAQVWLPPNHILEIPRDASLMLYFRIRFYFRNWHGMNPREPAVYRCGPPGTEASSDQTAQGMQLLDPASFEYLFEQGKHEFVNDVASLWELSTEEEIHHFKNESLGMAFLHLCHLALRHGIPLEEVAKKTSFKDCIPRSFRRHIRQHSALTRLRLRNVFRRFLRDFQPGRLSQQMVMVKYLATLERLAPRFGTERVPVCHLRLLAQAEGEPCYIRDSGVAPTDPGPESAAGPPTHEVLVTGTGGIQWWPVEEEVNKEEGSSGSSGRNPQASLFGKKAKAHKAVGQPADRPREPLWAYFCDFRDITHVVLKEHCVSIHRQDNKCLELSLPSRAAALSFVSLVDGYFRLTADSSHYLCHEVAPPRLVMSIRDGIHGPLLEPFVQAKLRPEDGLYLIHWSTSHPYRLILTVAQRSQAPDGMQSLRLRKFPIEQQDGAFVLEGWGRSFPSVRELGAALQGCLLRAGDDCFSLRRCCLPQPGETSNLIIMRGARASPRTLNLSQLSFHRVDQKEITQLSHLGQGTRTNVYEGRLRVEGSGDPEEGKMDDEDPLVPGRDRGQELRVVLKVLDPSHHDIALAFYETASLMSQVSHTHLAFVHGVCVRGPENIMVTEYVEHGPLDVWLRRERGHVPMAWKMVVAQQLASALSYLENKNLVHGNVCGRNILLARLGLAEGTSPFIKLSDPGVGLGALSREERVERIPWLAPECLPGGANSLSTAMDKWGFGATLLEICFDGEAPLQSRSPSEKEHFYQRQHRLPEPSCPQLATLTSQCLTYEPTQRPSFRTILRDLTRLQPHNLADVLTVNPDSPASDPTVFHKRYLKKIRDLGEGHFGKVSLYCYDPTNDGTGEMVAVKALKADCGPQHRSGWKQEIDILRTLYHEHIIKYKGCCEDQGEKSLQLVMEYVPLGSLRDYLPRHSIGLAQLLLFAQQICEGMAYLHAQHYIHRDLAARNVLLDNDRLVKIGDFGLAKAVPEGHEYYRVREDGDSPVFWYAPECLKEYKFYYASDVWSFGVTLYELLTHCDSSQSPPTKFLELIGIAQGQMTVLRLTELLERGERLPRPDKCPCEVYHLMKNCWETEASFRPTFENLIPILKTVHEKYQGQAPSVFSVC
Method in brief: as §1

[4] = system: IL-2 stimulated pSTAT5 in Tall-1 T cells; experiment: Cellular JAK3 potency assay: inhibition of IL-2 stimulated pSTAT5 in Tall-1 T cells; format: cell-based, human; conditions: for IC50: Homo sapiens, read-out: Tall-1 (pIC50) (converted)
Method in brief: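 In human Tall-1 T cells, IL-2 (300 ng/ml final, 30 min) drives STAT5 phosphorylation after a 1 h compound pretreatment. Lysates are assayed for pSTAT5 by AlphaLisa, and IC50 derived from signal versus concentration is expressed as pIC50.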

[5] = target: T4, JAK3 (Homo sapiens, UniProt P52333); experiment: Biochemical JAK3 kinase assay (LanthaScreen); parameters: GST; purchased Life Technologies; conditions: for Ki: read-out: JAK 3 (pKi) (converted)
T4 sequence (P52333 1-1124): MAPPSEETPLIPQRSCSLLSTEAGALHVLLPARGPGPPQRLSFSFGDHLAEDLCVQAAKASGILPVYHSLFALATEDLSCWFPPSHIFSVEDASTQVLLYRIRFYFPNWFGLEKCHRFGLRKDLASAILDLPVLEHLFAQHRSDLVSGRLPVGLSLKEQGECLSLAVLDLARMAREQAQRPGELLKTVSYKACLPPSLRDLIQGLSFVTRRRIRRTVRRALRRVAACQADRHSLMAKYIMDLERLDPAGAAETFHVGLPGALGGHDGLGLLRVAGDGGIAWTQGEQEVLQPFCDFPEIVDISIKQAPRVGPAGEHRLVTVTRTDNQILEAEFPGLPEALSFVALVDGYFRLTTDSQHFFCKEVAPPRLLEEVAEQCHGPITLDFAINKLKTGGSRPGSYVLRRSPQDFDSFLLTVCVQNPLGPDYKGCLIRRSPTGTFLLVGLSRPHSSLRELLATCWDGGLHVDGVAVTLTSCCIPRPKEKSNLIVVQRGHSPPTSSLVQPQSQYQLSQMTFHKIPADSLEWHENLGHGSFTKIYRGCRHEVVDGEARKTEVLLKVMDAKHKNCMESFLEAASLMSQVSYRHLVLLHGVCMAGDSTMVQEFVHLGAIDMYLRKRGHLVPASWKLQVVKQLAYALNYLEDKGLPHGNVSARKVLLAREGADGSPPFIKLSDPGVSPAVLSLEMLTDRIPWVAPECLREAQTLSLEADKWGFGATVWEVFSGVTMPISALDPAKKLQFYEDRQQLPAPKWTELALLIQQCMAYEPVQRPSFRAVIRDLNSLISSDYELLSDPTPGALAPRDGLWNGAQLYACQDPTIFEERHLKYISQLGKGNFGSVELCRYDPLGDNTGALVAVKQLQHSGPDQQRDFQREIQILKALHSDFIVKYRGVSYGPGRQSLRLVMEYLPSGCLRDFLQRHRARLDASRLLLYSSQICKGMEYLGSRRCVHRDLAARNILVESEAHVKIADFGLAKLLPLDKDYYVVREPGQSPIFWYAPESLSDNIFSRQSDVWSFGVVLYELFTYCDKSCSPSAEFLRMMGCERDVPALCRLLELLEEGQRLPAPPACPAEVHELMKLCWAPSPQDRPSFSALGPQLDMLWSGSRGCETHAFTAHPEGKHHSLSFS
Method in brief: as §1

[6] = TALL-1, IL-2 stimulated pSTAT5 in Tall-1 T cells
[7] = selectivity: difference of pKi JAK3 and pKi JAK1
[8] = IL-2 stimulated pSTAT5 in Tall-1 T cells
[9] = IL-2 stimulated pSTAT5, Tall-1 T cells
[10] = selectivity JAK3 over JAK1, difference of pKi
[11] = TALL-1, IL-2 stimulated pSTAT5, Tall-1 T cells

T1 sequence (P23458 whole entry): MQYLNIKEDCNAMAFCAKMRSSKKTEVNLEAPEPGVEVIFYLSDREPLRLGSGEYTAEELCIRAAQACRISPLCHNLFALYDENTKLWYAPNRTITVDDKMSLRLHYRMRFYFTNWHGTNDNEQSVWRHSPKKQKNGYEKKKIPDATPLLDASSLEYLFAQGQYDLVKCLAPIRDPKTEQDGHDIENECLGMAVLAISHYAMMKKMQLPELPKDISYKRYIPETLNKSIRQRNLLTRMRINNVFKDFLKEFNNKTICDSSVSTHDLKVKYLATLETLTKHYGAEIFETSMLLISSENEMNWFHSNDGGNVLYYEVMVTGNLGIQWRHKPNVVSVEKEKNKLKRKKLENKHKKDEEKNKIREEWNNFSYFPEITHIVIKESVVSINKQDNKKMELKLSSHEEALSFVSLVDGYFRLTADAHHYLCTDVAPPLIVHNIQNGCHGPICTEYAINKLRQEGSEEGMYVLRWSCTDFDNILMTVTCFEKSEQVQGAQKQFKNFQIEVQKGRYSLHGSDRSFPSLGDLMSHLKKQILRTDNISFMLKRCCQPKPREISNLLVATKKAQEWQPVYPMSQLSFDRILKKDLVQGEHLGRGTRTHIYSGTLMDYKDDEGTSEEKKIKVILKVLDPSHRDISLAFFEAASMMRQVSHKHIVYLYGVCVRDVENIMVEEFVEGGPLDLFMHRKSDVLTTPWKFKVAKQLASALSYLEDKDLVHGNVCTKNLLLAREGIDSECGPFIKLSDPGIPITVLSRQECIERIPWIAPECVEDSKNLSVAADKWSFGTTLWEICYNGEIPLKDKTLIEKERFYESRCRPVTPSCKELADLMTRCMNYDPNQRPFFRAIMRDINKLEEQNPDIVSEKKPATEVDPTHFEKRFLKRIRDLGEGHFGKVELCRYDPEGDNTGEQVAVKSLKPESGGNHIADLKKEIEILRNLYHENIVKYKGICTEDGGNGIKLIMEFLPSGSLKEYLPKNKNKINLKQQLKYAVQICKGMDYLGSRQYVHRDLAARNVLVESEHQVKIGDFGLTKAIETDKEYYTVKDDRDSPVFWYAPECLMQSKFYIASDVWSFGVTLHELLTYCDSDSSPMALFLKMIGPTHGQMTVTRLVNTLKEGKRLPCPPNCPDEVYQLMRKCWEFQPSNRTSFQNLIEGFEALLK

Structure (SMILES)	Ki [1]	Ki [2]	Ki [3]	IC50 [4, 6]	Ki [5]	JAK3 (pKi)-JAK1 (pKi) [5, 7]	JAK 1 (pKi) [1]	JAK 2 (pKi) [2]	Tyk 2 (pKi) [3]	Tall-1 (pIC50) [4, 8]	JAK 3 (pKi) [5]	Tall-1 (pIC50) [4, 9]	JAK3 (pKi)-JAK1 (pKi) [5, 10]	IC50 [4, 11]
C=CC(=O)N1CC[C@H](Oc2cc(-c3ccc(O)c(Cl)c3)cc3[nH]nc(SC)c23)C1 [Compound 1-41]	> 100 nM	> 100 nM	> 100 nM	31.6 to 200 nM	0.1 to 1 nM	A (a value of 3 or above)								
CN(C)C/C=C/C(=O)N1CC(Oc2cc(-c3ccc(O)c(Cl)c3)cc3[nH]ncc23)C1 [Compound 5-3]						A (a value of 3 or above)	E (a pKi value of 7 or below (Ki of 100 nM or above))	E (a pKi value of 7 or below (Ki of 100 nM or above))	E (a pKi value of 7 or below (Ki of 100 nM or above))	A (a pIC50 value≥7.5 (IC50≤32 nM))	A (a pKi value≥10 (Ki≤0.1 nM))			
CN(C)C/C=C/C(=O)N1CC(COc2cc(-c3ccc(O)c(Cl)c3)cc3[nH]ncc23)C1 [Compound 3-2]	> 100 nM	> 100 nM	> 100 nM	31.6 to 200 nM	0.1 to 1 nM	A (a value of 3 or above)								
CN(C)C/C=C/C(=O)N1CC(C)(Oc2cc(-c3ccc(O)c(F)c3)cc3[nH]ncc23)C1 [Compound 5-19]							E (a pKi value of 7 or below (Ki of 100 nM or above))	E (a pKi value of 7 or below (Ki of 100 nM or above))	E (a pKi value of 7 or below (Ki of 100 nM or above))		B (a pKi value between 9 and 10 (Ki between 1 nM and 0.1 nM))	B (a pIC50 value between 6.7 (included) and 7.5 (IC50 between 200 nM and 32 nM))	A (a value of 3 or above)	
C=CC(=O)N1CC(COc2nc(-c3ccc(O)c(Cl)c3)nc3[nH]ncc23)C1 [Compound 3-38]	> 100 nM	> 100 nM	> 100 nM	31.6 to 200 nM	< 0.1 nM	A (a value of 3 or above)								
C=CC(=O)N1CC2(CC(Oc3nc(-c4ccc(O)cc4)cc4[nH]ncc34)C2)C1 [Compound 15-7]							E (a pKi value of 7 or below (Ki of 100 nM or above))	D (a pKi value between 7 and 8 (Ki between 100 nM and 10 nM))	E (a pKi value of 7 or below (Ki of 100 nM or above))		B (a pKi value between 9 and 10 (Ki between 1 nM and 0.1 nM))	A (a pIC50 value≥7.5 (IC50≤32 nM))	B (a value of 2.3 to 3)	
C=CC(=O)N1CC(COc2nc(-c3ccc(O)c(F)c3)nc3[nH]ncc23)C1 [Compound 3-39]	> 100 nM	> 100 nM	> 100 nM	31.6 to 200 nM	< 0.1 nM	A (a value of 3 or above)								
C=CC(=O)N1CCC(Oc2cc(-c3ccc(O)c(Cl)c3)cc3[nH]ncc23)CC1 [Compound 6-13]							E (a pKi value of 7 or below (Ki of 100 nM or above))	D (a pKi value between 7 and 8 (Ki between 100 nM and 10 nM))	E (a pKi value of 7 or below (Ki of 100 nM or above))		B (a pKi value between 9 and 10 (Ki between 1 nM and 0.1 nM))	A (a pIC50 value≥7.5 (IC50≤32 nM))	B (a value of 2.3 to 3)	
C=CC(=O)N1C[C@H](C(=O)Nc2cc(-c3ccc(O)cc3)cc3[nH]ncc23)OC[C@@H]1C [Compound 12-60]	> 100 nM	> 100 nM	> 100 nM		0.1 to 1 nM								A (a value of 3 or above)	31.6 to 200 nM
C=CC(=O)N1CC2(CC(Oc3cc(-c4ccc(O)c(F)c4)cc4[nH]ncc34)C2)C1 [Compound 15-2]							D (a pKi value between 7 and 8 (Ki between 100 nM and 10 nM))	D (a pKi value between 7 and 8 (Ki between 100 nM and 10 nM))	E (a pKi value of 7 or below (Ki of 100 nM or above))		A (a pKi value≥10 (Ki≤0.1 nM))	A (a pIC50 value≥7.5 (IC50≤32 nM))	B (a value of 2.3 to 3)	
C=CC(=O)N1CC(C)(COc2nc(-c3ccc(O)c(F)c3)cc3[nH]ncc23)C1 [Compound 3-59]						B (a value of 2.3 to 3)	E (a pKi value of 7 or below (Ki of 100 nM or above))	D (a pKi value between 7 and 8 (Ki between 100 nM and 10 nM))	E (a pKi value of 7 or below (Ki of 100 nM or above))	A (a pIC50 value≥7.5 (IC50≤32 nM))	B (a pKi value between 9 and 10 (Ki between 1 nM and 0.1 nM))			
C=CC(=O)N1CC(F)(COc2cc(-c3ccc(O)c(Cl)c3)nc3[nH]ncc23)C1 [Compound 3-94]						A (a value of 3 or above)	E (a pKi value of 7 or below (Ki of 100 nM or above))	E (a pKi value of 7 or below (Ki of 100 nM or above))	E (a pKi value of 7 or below (Ki of 100 nM or above))	A (a pIC50 value≥7.5 (IC50≤32 nM))	A (a pKi value≥10 (Ki≤0.1 nM))			
CN(C)C/C=C/C(=O)N1CC(S(=O)(=O)c2cc(-c3ccc(O)cc3)cc3[nH]ncc23)C1 [Compound 12-49]	> 100 nM	> 100 nM	> 100 nM		0.1 to 1 nM								A (a value of 3 or above)	200 to 1000 nM
C=CC(=O)N1CC(S(=O)(=O)c2cc(-c3ccc(O)cc3)cc3[nH]ncc23)C1 [Compound 12-50]	> 100 nM	> 100 nM	> 100 nM		< 0.1 nM								A (a value of 3 or above)	31.6 to 200 nM
C=CC(=O)N1CC(COc2cc(-c3ccc(O)cc3)cc3[nH]nc(SC)c23)C1 [Compound 18-10]	> 100 nM	10 to 100 nM	> 100 nM		< 0.1 nM								A (a value of 3 or above)	31.6 to 200 nM

From US10392368B2, “Pyrazolo and triazolo bicyclic compounds as JAK kinase inhibitors” (THERAVANCE BIOPHARMA R&D IP, LLC, priority 2017, dated 2019)
